Assay results from patent EP4650362A1, “NEUROPROTECTIVE PSD-95 POLYPEPTIDE INHIBITOR AND USE THEREOF” (Beijing Tuo Jie Biopharmaceutical Co. Ltd., priority 2023, dated 2024).
Read-outs that look alike come from different tables or passages of the source. Non-standard residues stand in square brackets, D forms with d. Residues, ends and D or L forms follow the SMILES beside them. Tle = CC(C)(C)[C@H](N)C(=O)O; Dab = NCC[C@H](N)C(=O)O; Aib = CC(C)(N)C(=O)O

Assays:
[1] = nephrotoxicity in rats (blood urea nitrogen, serum creatinine); format: in vivo, SD rats; conditions: for Blood urea nitrogen (BUN) levels / Serum creatinine (Crea) levels: rat serum
Protocol: With male SD rats as test animals, the nephrotoxicity of a polypeptide compound administered via single intravenous bolus injection in rats (serum) was studied.
This test was performed synchronously with Test Examples 3.6, with blood collection time points set as follows: before administration (day 0), and days 2, 4, and 7 post-administration. At each time point, 0.3 mL of blood was collected, transferred to a centrifuge tube, and left to stand at room temperature for 1 h. Then the whole blood sample was centrifuged at 4 °C at 4000 g for 5 min, and a serum sample was obtained by separation and cryopreserved at -80 °C.
The blood urea nitrogen (BUN) and serum creatinine levels at each time point were determined through commercially available kits. For blood urea nitrogen, the urease continuous monitoring method was used. For serum creatinine, the sarcosine oxidase method was used. The sample was thawed in a refrigerator at 2 to 8 °C and vortexed for thorough mixing, and 100 µL of the sample was pipetted into a sample cup. The cup was placed in the sample position of a biochemistry analyzer, and assays were performed according to the instructions of the kits. The experimental results are shown in Tables 8-1 and 8-2, FIG. 5A, and FIG. 5B.

human whole blood = assay: hemolysis risk test in human whole blood; format: cell-based; conditions: for Hemolysis rate (%): Human, 37 °C 1 h
Protocol: This test example assessed whether a polypeptide compound causes hemolytic reactions in rat, rabbit, and human whole blood.
Preparation of red blood cell suspension: 100 µL of fresh whole blood was collected, and 900 µL of 1× PBS solution was then added. The mixture was shaken on a plate shaker at 30 rpm for 5 min and then centrifuged at 1000 g for 5 min, and the supernatant was discarded. The above washing step was repeated until the supernatant no longer appeared red. The suspension was set aside for later use.
Preparation of test polypeptide solutions: An appropriate amount of 1× PBS solution was added to a powdered polypeptide, and the polypeptide was dissolved to form a standard stock solution. […] Meanwhile, blank 1× PBS was used as a negative control, and a 1× PBS solution containing 0.1% Triton X-100 was used as a positive control.
Incubation: A test solution (500 µL) was added to the red blood cell suspension, and then the mixture was well shaken on a plate shaker at 30 rpm for 5 min, incubated at 37 °C for 1 h, and centrifuged at 1000 g for 5 min.
100 µL of the supernatant was transferred to a single well of a microplate. The absorbance at 540 nm was measured using a SpectraMax M5 microplate reader, and data analysis was performed using GraphPad Prism 9. The hemolysis rate (%) was calculated using the formula: (test sample absorbance - negative control absorbance) / (positive control absorbance - negative control absorbance) × 100%. A rate of less than 5% indicates the absence of hemolysis, while a rate of greater than 5% indicates the presence of hemolysis. Table 3. Testing of the hemolysis risk of the polypeptide compound

histamine release = assay: ability to induce histamine release in beagle dogs (plasma); format: in vivo; design: Histamine levels (sums of detected histamine and 3-methylhistamine): unit not given here; conditions: for Histamine levels (sums of detected histamine and 3-methylhistamine): beagle dog plasma
Protocol: With beagle dogs as test animals, the ability of a polypeptide compound administered via single intravenous infusion to induce histamine release in dogs (plasma) was studied.
This test was performed synchronously with Test Examples 3.9, with four animals per group and blood collection time points set as follows: before administration (0 h), and 2 min, 5 min, and 15 min after the end of intravenous infusion.
Sample analysis and data processing were performed with reference to the methods in 3.7.3. Table 10. Histamine levels at different time points

[2] = pharmacokinetic study in beagle dogs, single intravenous infusion; format: in vivo
Protocol: With standard beagle dogs as test animals, the pharmacokinetic behavior of a polypeptide compound administered via single intravenous infusion in beagle dogs (plasma) was studied.
For polypeptide compound 22, two dose groups were set: 1.2 nmol/g and 0.4 nmol/g. For NA-1, one dose group was set: 1.2 nmol/g. Each group consisted of four animals, with an equal number of males and females. The polypeptide compound was dissolved in 1× PBS, and the polypeptide compound solution was then administered via intravenous infusion over 10 min. The blood collection time points were as follows: before infusion (0 h), 5 min after the start of bolus injection, and 0 min, 2 min, 5 min, 10 min, 15 min, 30 min, 1 h, 2 h, 4 h, 8 h, and 24 h after the end of bolus injection. At each time point, 0.5 mL of blood was collected and transferred to an EDTA-K2 anticoagulation centrifuge tube. Meanwhile, 50 µL of a protease inhibitor was added. After thorough mixing, the mixture was centrifuged at 2000 g for 10 min (4 °C), and the plasma was separated within 1 h, aliquoted into cryopreservation tubes, and stored at -60 to -90 °C. The blood collection-to-centrifugation process was performed under ice bath conditions.
The plasma concentrations of the test compounds were determined using the method in Test Example 3.4.3. Plasma concentration-time curves were plotted, and the pharmacokinetic parameters were calculated using PKSolver software.

[3] = 0.3 nmol/g, day 0 (before administration)
[4] = 1 nmol/g, day 0 (before administration)
[5] = 3 nmol/g, day 0 (before administration)
[6] = beagle dogs, intravenous infusion over 10 min, 0.4 nmol/g, Male
[7] = beagle dogs, intravenous infusion over 10 min, 1.2 nmol/g, Female
[8] = beagle dogs, intravenous infusion over 10 min, 1.2 nmol/g, Male
[9] = dog, plasma, beagle dogs, intravenous infusion over 10 min, 0.4 nmol/g, Female
[10] = dog, plasma, beagle dogs, intravenous infusion over 10 min, 0.4 nmol/g, Male
[11] = dog, plasma, beagle dogs, intravenous infusion over 10 min, 1.2 nmol/g, Female
[12] = dog, plasma, beagle dogs, intravenous infusion over 10 min, 1.2 nmol/g, Male

CC(C)[C@H](NC(=O)[C@H](CC(=O)O)NC(=O)[C@@H](NC(=O)[C@@H](NC(=O)[C@@H](NC(=O)[C@@H](NC(=O)[C@H](CCN)NC(=O)C(C)(C)NC(=O)CNC(=O)[C@@H](CCCNC(=N)N)NC(=O)[C@@H](CCCNC(=N)N)NC(=O)[C@@H](CCCNC(=N)N)NC(=O)[C@@H](CCC(N)=O)NC(=O)[C@@H](CCCNC(=N)N)NC(=O)[C@@H](CCCNC(=N)N)NC(=O)[C@@H](CCCCN)NC(=O)[C@@H](CCCCN)NC(=O)[C@@H](CCCNC(=N)N)NC(=O)CNC(=O)[C@H](N)Cc1ccc(O)cc1)[C@@H](C)O)C(C)(C)C)C(C)(C)C)[C@@H](C)O)C(=O)O [Polypeptide compound 14, y-G-r-k-k-r-r-q-r-r-r-G-Aib-Dab-T-Tle-Tle-T-D-V] (H-[dY]G[dR][dK][dK][dR][dR][dQ][dR][dR][dR]G[Aib][Dab]T[Tle][Tle]TDV-OH)
Blood urea nitrogen (BUN) levels [1, 3]: 11.8 ± 0.1 mg/dL | Serum creatinine (Crea) levels [1, 3]: 0.192 ± 0.006 mg/dL | Blood urea nitrogen (BUN) levels ([1]; 0.3 nmol/g, day 2): 13.7 ± 3.7 mg/dL | Serum creatinine (Crea) levels ([1]; 0.3 nmol/g, day 2): 0.200 ± 0.015 mg/dL | Blood urea nitrogen (BUN) levels ([1]; 0.3 nmol/g, day 4): 16.6 ± 4.6 mg/dL | Serum creatinine (Crea) levels ([1]; 0.3 nmol/g, day 4): 0.212 ± 0.024 mg/dL | Blood urea nitrogen (BUN) levels ([1]; 0.3 nmol/g, day 7): 15.3 ± 5.2 mg/dL | Serum creatinine (Crea) levels ([1]; 0.3 nmol/g, day 7): 0.205 ± 0.023 mg/dL | Blood urea nitrogen (BUN) levels [1, 4]: 14.2 ± 3.0 mg/dL | Serum creatinine (Crea) levels [1, 4]: 0.195 ± 0.013 mg/dL | Blood urea nitrogen (BUN) levels ([1]; 1 nmol/g, day 2): 15.5 ± 1.8 mg/dL | Serum creatinine (Crea) levels ([1]; 1 nmol/g, day 2): 0.203 ± 0.018 mg/dL | Blood urea nitrogen (BUN) levels ([1]; 1 nmol/g, day 4): 17.1 ± 2.7 mg/dL | Serum creatinine (Crea) levels ([1]; 1 nmol/g, day 4): 0.208 ± 0.017 mg/dL | Blood urea nitrogen (BUN) levels ([1]; 1 nmol/g, day 7): 13.7 ± 1.4 mg/dL | Serum creatinine (Crea) levels ([1]; 1 nmol/g, day 7): 0.221 ± 0.005 mg/dL | Blood urea nitrogen (BUN) levels [1, 5]: 16.3 ± 1.0 mg/dL | Serum creatinine (Crea) levels [1, 5]: 0.22 ± 0.015 mg/dL | Blood urea nitrogen (BUN) levels ([1]; 3 nmol/g, day 2): 16.2 ± 0.7 mg/dL | Serum creatinine (Crea) levels ([1]; 3 nmol/g, day 2): 0.208 ± 0.006 mg/dL | Blood urea nitrogen (BUN) levels ([1]; 3 nmol/g, day 4): 16.0 ± 2.0 mg/dL | Serum creatinine (Crea) levels ([1]; 3 nmol/g, day 4): 0.226 ± 0.012 mg/dL | Blood urea nitrogen (BUN) levels ([1]; 3 nmol/g, day 7): 14.5 ± 1.7 mg/dL | Serum creatinine (Crea) levels ([1]; 3 nmol/g, day 7): 0.233 ± 0.014 mg/dL | renal safety concerns ([1]; rats, within the tested concentration range, 7-day monitoring period): neither NA-1 nor polypeptide compound 14 caused significant renal safety concerns | Hemolysis rate (%) (human whole blood; 1.0 µM): 0.09% | Hemolysis rate (%) (human whole blood; 2.5 µM): 0.38% | Hemolysis rate (%) (human whole blood; 5.0 µM): 0.15% | Hemolysis rate (%) (human whole blood; 10 µM): 0.31% | Hemolysis rate (%) (human whole blood; 25 µM): 0.08% | Hemolysis rate (%) (human whole blood; 50 µM): 0.53% | hemolysis rates (human whole blood; human whole blood, concentration range of 1 to 50 µM): less than 5%

CC(C)[C@H](NC(=O)[C@H](CC(=O)O)NC(=O)[C@@H](NC(=O)[C@@H](NC(=O)[C@@H](NC(=O)[C@@H](NC(=O)[C@H](CCN)NC(=O)C(C)(C)NC(=O)CNC(=O)[C@@H](CCCNC(=N)N)NC(=O)[C@H](CCCNC(=N)N)NC(=O)[C@H](CCCNC(=N)N)NC(=O)[C@H](CCC(N)=O)NC(=O)[C@@H](CCCNC(=N)N)NC(=O)[C@H](CCCNC(=N)N)NC(=O)[C@H](CCCCN)NC(=O)[C@H](CCCCN)NC(=O)[C@H](N)CCCNC(=N)N)[C@@H](C)O)C(C)(C)C)C(C)(C)C)[C@@H](C)O)C(=O)O [Polypeptide compound 22, r-K-K-R-r-Q-R-R-r-G-Aib-Dab-T-Tle-Tle-T-D-V] (H-[dR]KKR[dR]QRR[dR]G[Aib][Dab]T[Tle][Tle]TDV-OH)
Histamine levels (sums of detected histamine and 3-methylhistamine) (histamine release; 0.4 nmol/g, 0 min (before administration)): 6.28±5.01 | Histamine levels (sums of detected histamine and 3-methylhistamine) (histamine release; 0.4 nmol/g, 2 min after the end of intravenous infusion): 9.45±7.38 | Histamine levels (sums of detected histamine and 3-methylhistamine) (histamine release; 0.4 nmol/g, 5 min after the end of intravenous infusion): 11.70±8.39 | Histamine levels (sums of detected histamine and 3-methylhistamine) (histamine release; 0.4 nmol/g, 15 min after the end of intravenous infusion): 7.97±2.75 | Histamine levels (sums of detected histamine and 3-methylhistamine) (histamine release; 1.2 nmol/g, 0 min (before administration)): 7.06±4.14 | Histamine levels (sums of detected histamine and 3-methylhistamine) (histamine release; 1.2 nmol/g, 2 min after the end of intravenous infusion): 12.71±10.47 | Histamine levels (sums of detected histamine and 3-methylhistamine) (histamine release; 1.2 nmol/g, 5 min after the end of intravenous infusion): 6.24±1.78 | Histamine levels (sums of detected histamine and 3-methylhistamine) (histamine release; 1.2 nmol/g, 15 min after the end of intravenous infusion): 5.81±1.44 | changes in histamine levels compared to before administration (histamine release; beagle dogs, both doses (0.4 and 1.2 nmol/g)): no significant changes in histamine levels | AUClast/dose ([2]; beagle dogs, intravenous infusion over 10 min, 0.4 nmol/g, Female): 5730 | AUClast/dose [2, 6]: 4513 | Tmax [2, 6]: 10.2 min | AUClast/dose [2, 7]: 6558 | T1/2 [2, 7]: 4.25 h | AUClast/dose [2, 8]: 8183 | T1/2 [2, 8]: 5.90 h | Tmax [2, 8]: 10.8 min | half-life ([2]; both sexes, beagle, dog, in vivo, iv, dogs, same dose (1.2 nmol/g), read-out: average T1/2 (converted)): 306 min | AUC(0-inf) [2, 9]: 5890 ng·h/mL | Cmax [2, 9]: 3930 ng/mL | MRT [2, 9]: 3.66 h | half-life ([2]; dog, plasma, beagle dogs, intravenous infusion over 10 min, 0.4 nmol/g, Female, read-out: T1/2 (converted)): 170 min | Tmax ([2]; dog, plasma, beagle dogs, intravenous infusion over 10 min, 0.4 nmol/g, Female, read-out: Tmax): 10.2 min | AUC(0-inf) [2, 10]: 5170 ng·h/mL | Cmax [2, 10]: 2320 ng/mL | MRT [2, 10]: 4.61 h | half-life ([2]; dog, plasma, beagle dogs, intravenous infusion over 10 min, 0.4 nmol/g, Male, read-out: T1/2 (converted)): 202 min | AUC(0-inf) [2, 11]: 18000 ng·h/mL | Cmax [2, 11]: 8130 ng/mL | MRT [2, 11]: 4.91 h | Tmax ([2]; dog, plasma, beagle dogs, intravenous infusion over 10 min, 1.2 nmol/g, Female, read-out: Tmax): 10.8 min | AUC(0-inf) [2, 12]: 23500 ng·h/mL | Cmax [2, 12]: 7680 ng/mL | MRT [2, 12]: 7.03 h | average AUC, times that of NA-1 ([2]; dogs, same dose (1.2 nmol/g)): 21.3 times | average Cmax, times that of NA-1 ([2]; dogs, same dose (1.2 nmol/g)): 1.3 times
